Test results as given in paper PMC5623949, “Exploiting the 2-Amino-1,3,4-thiadiazole Scaffold To Inhibit Trypanosoma brucei Pteridine Reductase in Support of Early-Stage Drug Discovery” (ACS Omega, 2017).
Read-outs that look alike come from different tables or passages of the source.

Columns and labels:
in vitro [1] = assay: in vitro; set-up: cytotoxicity, per cent cell growth of WI-38 fibroblasts; conditions: human, wi-38 cells; read-out: % cell growth W1-38 at 10uM
Experimental: (§1) Independent of the effect of any antiparasitic potential of compounds, they were evaluated using a panel of early-toxicity assays comprising cytotoxicity (A549, human lung adenocarcinoma epithelial cell line and WI-38, human lung fibroblasts), mitochondrial toxicity (786-O, human renal carcinoma cell line), hERG inhibition,[31] cytochrome P450 inhibition (CYP1A2, CYP2C9, CYP2C19, CYP2D6, and CYP3A4),[31] and Aurora B kinase inhibition. […] For the two compounds active against TbPTR1 (4m and 4o), IC50 against hERG, cytochrome P450, and mitochondrial toxicity were determined (reported in Supporting Information). We observed that the dose of compounds 4m, 4o, 4c, and 3k was 4 μM in the potentiation assays. […] In the case of hERG, CYP2D6, CYP2A9, CYP2C19, and mitochondrial toxicity, there is a selectivity index of around 3–4 fold, thus showing an acceptable profile.  Figure 10 Summary heat map of the in vitro assays to determine possible liability issues for all synthesized compounds. Assays were performed to assess inhibition of hERG and five CYP isoforms (1A2, 2C9, 2C19, 2D6, and 3A4), growth inhibition of A549 and W1-38 cell lines, and mitochondrial toxicity at 10 μM. The hDHFR inhibition was determined at 100 μM. The data, expressed as percentage values, were organized by adopting a color code for rapid and intuitive visualization. The ideal compound should have all tiles blue, indicating a safe toxicological profile for progressing into the development pipeline. The cells are colored from blue (100% of cell growth at the tested concentration) to red (0% of cell growth at the tested concentration) for A549 and W1-38 and from blue (0% of inhibitory activity at the tested concentration) to red (100% of inhibitory activity at the tested concentration) for CYP isoforms, hERG, hDHFR, and mitochondrial toxicity.

786-O = assay: cells; set-up: mitochondrial toxicity in 786-O renal carcinoma cells; conditions: Homo sapiens, 786-0; mitochondrial toxicity
Experimental: as §1

hDHFR = target: T1, hDHFR (Homo sapiens, UniProt P00374); assay: biochemical; set-up: human DHFR enzyme inhibition
T1 construct: gene DHFR
T1 sequence (P00374 1-187): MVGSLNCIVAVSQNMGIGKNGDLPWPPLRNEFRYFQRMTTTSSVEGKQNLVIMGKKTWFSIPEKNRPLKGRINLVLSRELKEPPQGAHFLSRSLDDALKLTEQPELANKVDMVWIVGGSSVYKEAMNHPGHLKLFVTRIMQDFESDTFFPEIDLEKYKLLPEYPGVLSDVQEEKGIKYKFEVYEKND
Experimental: Figure 10 Summary heat map of the in vitro assays to determine possible liability issues for all synthesized compounds. Assays were performed to assess inhibition of hERG and five CYP isoforms (1A2, 2C9, 2C19, 2D6, and 3A4), growth inhibition of A549 and W1-38 cell lines, and mitochondrial toxicity at 10 μM. The hDHFR inhibition was determined at 100 μM. The data, expressed as percentage values, were organized by adopting a color code for rapid and intuitive visualization. The ideal compound should have all tiles blue, indicating a safe toxicological profile for progressing into the development pipeline. The cells are colored from blue (100% of cell growth at the tested concentration) to red (0% of cell growth at the tested concentration) for A549 and W1-38 and from blue (0% of inhibitory activity at the tested concentration) to red (100% of inhibitory activity at the tested concentration) for CYP isoforms, hERG, hDHFR, and mitochondrial toxicity.

CYP2C9 = CYP2C9 (Homo sapiens, UniProt P11712); assay: in vitro; set-up: cytochrome P450 isoform inhibition liability assay
Experimental: as §1

CYP3A4 = CYP3A4 (Homo sapiens, UniProt P08684); assay: in vitro; set-up: cytochrome P450 isoform inhibition liability assay
Experimental: as §1

CYP1A2 = target: T2, CYP1A2 (Homo sapiens, UniProt P05177); assay: in vitro; set-up: cytochrome P450 isoform inhibition liability assay
T2 sequence (P05177 1-516): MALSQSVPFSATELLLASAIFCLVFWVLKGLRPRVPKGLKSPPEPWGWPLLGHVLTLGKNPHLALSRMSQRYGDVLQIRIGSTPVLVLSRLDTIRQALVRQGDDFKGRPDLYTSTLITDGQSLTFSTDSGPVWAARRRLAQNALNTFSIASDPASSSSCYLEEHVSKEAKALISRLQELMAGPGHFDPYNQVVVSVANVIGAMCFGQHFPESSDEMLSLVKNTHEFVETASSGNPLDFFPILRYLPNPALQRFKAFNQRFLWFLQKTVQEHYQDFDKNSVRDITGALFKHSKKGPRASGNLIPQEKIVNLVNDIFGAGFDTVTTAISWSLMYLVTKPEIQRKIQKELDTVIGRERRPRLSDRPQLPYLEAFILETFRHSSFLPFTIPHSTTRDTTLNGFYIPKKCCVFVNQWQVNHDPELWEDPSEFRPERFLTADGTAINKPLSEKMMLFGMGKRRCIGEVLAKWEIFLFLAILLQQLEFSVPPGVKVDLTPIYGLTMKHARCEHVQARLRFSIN
Experimental: as §1

CYP2D6 = CYP2D6 (Homo sapiens, UniProt P10635); assay: in vitro; set-up: cytochrome P450 isoform inhibition liability assay
Experimental: as §1

CYP2C19 = CYP2C19 (Homo sapiens, UniProt P33261); assay: in vitro; set-up: cytochrome P450 isoform inhibition liability assay
Experimental: as §1

[2] = test system: T. b. brucei Lister 427 bloodstream forms; assay: In vitro activity against T. brucei (HTS SYBR Green I growth inhibition assay); format: cell-based, Trypanosoma brucei brucei; conditions: Trypanosoma brucei, 50 μM; standard deviation within ±10% of the value; read-out: % Inhibition T. brucei at 50 μM
TbPTR1 = target: T3, TbPTR1 (Trypanosoma brucei brucei, UniProt O76290); assay: biochemical; conditions: for inhibition at 50 µM: 50 μM compound, read-out: % Inhibition TbPTR1 at 50 μM; for IC50: dose-response 0.001-100 μM
T3 construct: made in house
T3 sequence (O76290 1-268): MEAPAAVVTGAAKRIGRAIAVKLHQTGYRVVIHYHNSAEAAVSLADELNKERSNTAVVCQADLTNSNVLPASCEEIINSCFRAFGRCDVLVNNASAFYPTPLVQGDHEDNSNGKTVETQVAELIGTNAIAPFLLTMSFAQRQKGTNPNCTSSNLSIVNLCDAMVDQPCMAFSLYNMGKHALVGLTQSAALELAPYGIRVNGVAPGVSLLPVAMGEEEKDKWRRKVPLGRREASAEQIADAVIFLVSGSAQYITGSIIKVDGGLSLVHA

in vitro [3] = assay: in vitro; set-up: cytotoxicity, per cent cell growth of A549 cells; conditions: human, a549 cells; read-out: % cell growth A549 at 10uM
Experimental: as §1

hERG = target: T4, hERG (Homo sapiens, UniProt Q12809); set-up: hERG inhibition liability assay
T4 construct: gene KCNH2
Experimental: as §1

Chain of CYP3A4 (P08684 whole entry, canonical isoform): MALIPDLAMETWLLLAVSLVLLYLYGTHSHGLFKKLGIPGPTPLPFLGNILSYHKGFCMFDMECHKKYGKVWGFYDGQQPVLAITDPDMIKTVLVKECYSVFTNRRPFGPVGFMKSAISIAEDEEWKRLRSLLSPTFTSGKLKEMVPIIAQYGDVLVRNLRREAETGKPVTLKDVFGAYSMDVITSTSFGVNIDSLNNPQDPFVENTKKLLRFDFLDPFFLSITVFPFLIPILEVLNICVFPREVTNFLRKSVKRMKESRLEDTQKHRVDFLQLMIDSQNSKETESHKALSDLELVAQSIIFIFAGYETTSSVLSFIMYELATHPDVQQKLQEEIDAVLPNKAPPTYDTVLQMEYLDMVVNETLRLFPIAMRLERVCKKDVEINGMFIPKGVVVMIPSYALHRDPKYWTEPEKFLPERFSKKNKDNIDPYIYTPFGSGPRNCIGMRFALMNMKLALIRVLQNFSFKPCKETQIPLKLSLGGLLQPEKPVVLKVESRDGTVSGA
Chain of CYP2C9 (P11712 whole entry, canonical isoform): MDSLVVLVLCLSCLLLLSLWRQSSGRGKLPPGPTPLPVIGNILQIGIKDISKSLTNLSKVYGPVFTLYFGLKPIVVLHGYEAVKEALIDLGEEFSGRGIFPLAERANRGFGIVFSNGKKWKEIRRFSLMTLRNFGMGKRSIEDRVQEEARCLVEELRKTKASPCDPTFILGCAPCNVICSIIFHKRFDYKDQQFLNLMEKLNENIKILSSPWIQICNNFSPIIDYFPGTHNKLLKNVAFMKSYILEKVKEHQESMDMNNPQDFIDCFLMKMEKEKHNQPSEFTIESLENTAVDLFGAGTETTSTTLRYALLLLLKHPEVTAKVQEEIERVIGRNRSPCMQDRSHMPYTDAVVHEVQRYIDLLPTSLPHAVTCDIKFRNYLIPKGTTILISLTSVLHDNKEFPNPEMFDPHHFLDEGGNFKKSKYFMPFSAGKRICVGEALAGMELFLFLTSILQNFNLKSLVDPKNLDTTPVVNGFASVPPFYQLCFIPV
Chain of CYP2C19 (P33261 whole entry, canonical isoform): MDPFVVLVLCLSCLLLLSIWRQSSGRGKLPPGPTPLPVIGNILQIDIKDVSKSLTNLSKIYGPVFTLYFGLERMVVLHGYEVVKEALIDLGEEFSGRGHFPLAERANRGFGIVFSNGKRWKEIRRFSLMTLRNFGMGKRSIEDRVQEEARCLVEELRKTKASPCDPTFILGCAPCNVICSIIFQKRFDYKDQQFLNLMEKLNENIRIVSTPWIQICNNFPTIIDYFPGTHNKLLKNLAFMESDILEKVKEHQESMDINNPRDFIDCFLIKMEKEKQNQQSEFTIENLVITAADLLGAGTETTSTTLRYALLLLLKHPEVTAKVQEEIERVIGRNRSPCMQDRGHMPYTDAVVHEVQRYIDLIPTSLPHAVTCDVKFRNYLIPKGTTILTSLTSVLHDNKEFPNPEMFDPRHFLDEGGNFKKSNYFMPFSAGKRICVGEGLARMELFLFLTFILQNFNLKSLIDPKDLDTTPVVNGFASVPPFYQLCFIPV
Chain of CYP2D6 (P10635 whole entry, canonical isoform): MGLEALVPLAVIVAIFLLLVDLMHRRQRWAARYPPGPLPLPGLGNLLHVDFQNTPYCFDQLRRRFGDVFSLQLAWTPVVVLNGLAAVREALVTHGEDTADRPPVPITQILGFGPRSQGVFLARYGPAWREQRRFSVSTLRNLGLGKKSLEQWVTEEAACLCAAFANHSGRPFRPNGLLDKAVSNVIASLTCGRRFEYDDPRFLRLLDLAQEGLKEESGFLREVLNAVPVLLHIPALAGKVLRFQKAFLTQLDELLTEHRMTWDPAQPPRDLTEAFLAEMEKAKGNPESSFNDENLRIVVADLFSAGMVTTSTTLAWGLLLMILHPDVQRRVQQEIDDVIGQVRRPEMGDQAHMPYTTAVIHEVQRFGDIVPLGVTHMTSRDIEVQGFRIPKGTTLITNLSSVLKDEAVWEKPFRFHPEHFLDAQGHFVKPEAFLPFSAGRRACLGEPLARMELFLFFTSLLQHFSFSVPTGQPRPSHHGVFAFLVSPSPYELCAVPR
T4 sequence (Q12809 whole entry): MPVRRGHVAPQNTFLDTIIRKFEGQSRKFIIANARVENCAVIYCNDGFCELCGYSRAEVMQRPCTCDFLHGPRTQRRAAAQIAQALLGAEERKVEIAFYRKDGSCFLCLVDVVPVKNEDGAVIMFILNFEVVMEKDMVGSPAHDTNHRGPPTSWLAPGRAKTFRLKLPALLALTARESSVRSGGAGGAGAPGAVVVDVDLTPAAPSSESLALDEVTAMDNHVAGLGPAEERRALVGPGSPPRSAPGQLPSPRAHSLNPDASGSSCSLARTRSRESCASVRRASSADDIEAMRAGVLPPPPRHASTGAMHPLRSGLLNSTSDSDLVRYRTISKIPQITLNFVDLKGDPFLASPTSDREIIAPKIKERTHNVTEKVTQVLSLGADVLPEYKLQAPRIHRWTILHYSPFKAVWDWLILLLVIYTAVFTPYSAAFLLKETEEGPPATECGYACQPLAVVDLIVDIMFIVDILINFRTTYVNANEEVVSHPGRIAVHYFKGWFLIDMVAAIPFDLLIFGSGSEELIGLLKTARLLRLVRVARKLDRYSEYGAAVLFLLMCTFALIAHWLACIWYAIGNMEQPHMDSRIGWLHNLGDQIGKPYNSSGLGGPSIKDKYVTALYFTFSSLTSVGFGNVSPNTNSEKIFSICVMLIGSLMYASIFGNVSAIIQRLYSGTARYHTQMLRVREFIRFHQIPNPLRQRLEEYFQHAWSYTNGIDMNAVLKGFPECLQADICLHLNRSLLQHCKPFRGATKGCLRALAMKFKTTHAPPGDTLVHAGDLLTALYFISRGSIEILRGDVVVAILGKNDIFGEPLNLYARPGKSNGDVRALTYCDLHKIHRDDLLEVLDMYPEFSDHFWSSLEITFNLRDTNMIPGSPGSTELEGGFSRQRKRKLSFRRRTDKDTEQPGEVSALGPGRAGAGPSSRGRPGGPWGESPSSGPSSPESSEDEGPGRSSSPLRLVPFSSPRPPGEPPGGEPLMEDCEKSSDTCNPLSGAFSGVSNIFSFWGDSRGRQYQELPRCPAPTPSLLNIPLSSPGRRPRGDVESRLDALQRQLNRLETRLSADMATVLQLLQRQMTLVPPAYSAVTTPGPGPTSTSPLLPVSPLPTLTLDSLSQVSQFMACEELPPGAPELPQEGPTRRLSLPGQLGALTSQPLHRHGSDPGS

SMILES	viability at 10 µM (in vitro [1]) [%]	inhibition at 10 µM (786-O) [%]	inhibition at 10 µM (hDHFR) [%]	inhibition at 10 µM (CYP2C9) [%]	inhibition at 10 µM (CYP3A4) [%]	inhibition at 10 µM (CYP1A2) [%]	inhibition at 10 µM (CYP2D6) [%]	inhibition at 10 µM (CYP2C19) [%]	inhibition at 50 µM [2] [%]	inhibition at 50 µM (TbPTR1) [%]	viability at 10 µM (in vitro [3]) [%]	inhibition at 10 µM (hERG) [%]	inhibition at 100 µM (hDHFR) [%]	IC50 (TbPTR1) [µM]
Nc1nnc(-c2ccc(Cl)c(Cl)c2)s1 [1l]	77.8 ± 22.1	7.6 ± 8.3	18	46.7 ± 1.5	35.7 ± 7.9	80.6 ± 1.6	52.7 ± 2.1	64.9 ± 1.7	30	15.6 ± 0.7	107 ± 1.2	91.7 ± 8.4	–	–
Nc1cccc(-c2ccc(-c3nnc(N)s3)cc2)c1 [2b]	73.4 ± 2.5	-1 ± 2.2	17	1.9 ± 1	32 ± 3.7	44.6 ± 1.5	-16.1 ± 6.6	-3.9 ± 13.3	33.4	16.2 ± 0.5	137 ± 11.1	9.1 ± 4.4	–	–
Nc1nnc(NCc2ccc(C(F)(F)F)cc2)s1 [4f]	80.9 ± 23.6	9.6 ± 12.5	–	19.5 ± 1.3	7.8 ± 9.8	24.6 ± 2.5	72.4 ± 3.8	11.9 ± 6.6	< 0	37.7 ± 0.5	113 ± 4.8	69.9 ± 2.3	19	48
N#Cc1ccc(CNc2nnc(N)s2)cc1 [4h]	107 ± 24.9	-0.1 ± 9.4	–	15 ± 1.4	7.2 ± 12.7	17.1 ± 4.4	62.4 ± 2.9	-2 ± 6.3	< 0	34.6 ± 3	105 ± 2.3	82.6 ± 11.8	17	70
COC(=O)C(Cc1ccccc1)Nc1nnc(N)s1 (centres unmarked) [4p, Methyl 2G((5GaminoG1,3,4GthiadiazolG2Gyl)amino)G3Gphenylpropanoate]	114 ± 12.7	1.72 ± 5.2	–	-10.9 ± 3	-12.5 ± 6.8	-1.5 ± 4.3	47.4 ± 3.3	-27.4 ± 13.1	0.4	3.9 ± 0.3	126 ± 3.5	28.7 ± 10.5	9	–
Nc1nnc(-c2cccc(Br)c2)s1 [1i]	111 ± 12.3	-3.6 ± 9.1	–	-47.7 ± 2	-14.1 ± 6	47 ± 2	-45.1 ± 6.2	-30.9 ± 4.3	1.8	34.2 ± 1.5	135 ± 4.6	14.6 ± 4.2	19	–
